In patent US8846675B2, “N-linked heterocyclic receptor agonists for the treatment of diabetes and metabolic disorders” (Cymabay Therapeutics, Inc., priority 2007, dated 2014):

Target: T1, IC-GPCR2 (Homo sapiens, UniProt Q8TDV5)
T1 construct: expressed in transfected cells
T1 sequence (Q8TDV5 1-335 S309L): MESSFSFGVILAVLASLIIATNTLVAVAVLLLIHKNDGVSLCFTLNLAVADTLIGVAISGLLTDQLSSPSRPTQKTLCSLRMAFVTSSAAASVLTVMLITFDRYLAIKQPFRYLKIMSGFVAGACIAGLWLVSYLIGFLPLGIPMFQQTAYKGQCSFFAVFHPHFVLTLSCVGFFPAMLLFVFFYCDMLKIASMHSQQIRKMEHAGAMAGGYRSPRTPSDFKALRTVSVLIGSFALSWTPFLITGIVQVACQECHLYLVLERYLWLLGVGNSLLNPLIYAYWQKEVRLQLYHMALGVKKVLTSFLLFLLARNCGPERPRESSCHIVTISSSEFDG
Assay: Stimulation of cAMP in CHO cell line stably expressing IC-GPCR2 (HTRF cAMP dynamic kit)
Type: cell-based
Conditions: 3 μM compound; relative to maximal activity of 5-Ethyl-2-{4-[4-(4-tetrazol-1-yl-phenoxymethyl)-thiazol-2-yl]-piperidin-1-yl}-pyrimidine (=100%); IC-GPCR2 stably expressing CHO cells, 30 minutes
Experimental: This assay was developed using a stable cell line expressing IC-GPCR-2, generated as follows. IC-GPCR2 (Seq. ID No. 1) was cloned into Gateway pDEST 40vector (Invitrogen), using the Gateway cloning system (invitrogen) according to the manufacturers instructions. A stable cell line was generated by transfecting a 10 cm plate of CHO cells (source) with 8 ug of this construct using Transit-CHO transfection kit (Mirus). CHO cells were plated the day prior to transfection at a density of 3,000,000 cells/plate. Clones were selected using the antibiotic G418 at 500 ug/ml. 23 clones were picked and assayed for the expression of the receptor by measuring changes in intracellular cAMP levels in response to an IC-GPCR2 agonist (Arena 51).
To measure cAMP activity in response to IC-GPCR2 agonist, the clones were plated in 96 well plates at 17500 cells per well. On the day after plating, cells were incubated with the IC-CPCR2 agonist at […] for 30 minutes in Ham's F12 Media (Gibco) with 0.04% DMSO. cAMP was measured using the cAMP dynamic kit from C is Bio (Bedford, Mass.) according to the manufacturers instructions. Briefly, cells were lysed, and cAMP levels determined by competitive immunoassay using D2 labeled cAMP, and europium cryptate tagged anti cAMP antibody. When in close proximity, the D2 and europium cryptate undergo fluorescence resonance energy transfer (FRET), which is measured as a fluorescence ratio (665 nm/620 nm). Unlabelled cAMP in the cell lysatc competed with the D2 labeled cAMP for the europium crypate labeled antibody. The resulting decrease in FRET signal corresponded to intracellular cAMP levels. Fluorescence was read on a BMG Labtech PHERAstar, software version 1.50.
The clone with the greatest response to IC-GPCR2 agonist was selected for the screening assay.
Compounds were dissolved in 100% DMSO to a concentration of […] to provide stock solutions. To determine activity against IC-GPCR2, compounds were incubated with IC-GPCR2 stably expressing cells (described above), at 6-8 concentrations ranging from 0.00003 to 10 micromolar, in 96 well plates, in 50 ul of Hams F12 media for 30 minutes. Cells were plated at 17500 cells per well 1 day before running the assay. All compounds were also screened against the parental CHO cells. cAMP was measured using the cAMP dynamic kit from Cis Bio (Bedford, Mass.), according to the manufacturer's instructions. Briefly, cells were lysed and cAMP levels determined by competitive immunoassay using D2 labeled cAMP, and europium cryptate tagged anti cAMP antibody. When in close proximity, the D2 and europium cryptate undergo fluorescence resonance energy transfer (FRET), which is measured as a fluorescence ratio (665 nm/620 nm). Unlabelled cAMP in the cell lysate competed with the D2 labeled cAMP for the europium crypate labeled antibody. The resulting decrease in FRET signal corresponded to intracellular cAMP levels
To determine percent activity for a tested compound, the FRET signal value obtained at a particular concentration are compared to the Maximal FRET signal value obtained for 5-Ethyl-2-{4-[4-(4-tetrazol-1-yl-phenoxymethyl)-thiazol-2-yl]-piperidin-1-yl}-pyrimidine. The maximal activity of 5-Ethyl-2-{4-[4-(4-tetrazol-1-yl-phenoxymethyl)-thiazol-2-yl]-piperidin-1-yl}-pyrimidine is designated as 100% activity. Typically, the concentration of 5-Ethyl-2-{4-[4-(4-tetrazol-1-yl-phenoxymethyl)-thiazol-2-yl]-piperidin-1-yl}-pyrimidine in the assay was approximately 0.1 μM. The synthesis of 5-Ethyl-2-{4-[4-(4-tetrazol-1-yl-phenoxymethyl)-thiazol-2-yl]-piperidin-1-yl}-pyrimidine is disclosed in co-owned pending U.S. patent application Ser. No. 11/964,461, herein incorporated by reference. Activities of compounds that were tested are shown in Table 1 below and are expressed as % activity at 3 μM compound compared to the maximal activity of 5-Ethyl-2-{4-[4-(4-tetrazol-1-yl-phenoxymethyl)-thiazol-2-yl]-piperidin-1-yl}-pyrimidine at 3 μM.

Row | SMILES | % activity at 3 μM [%]
1 | COC(=O)[C@H]1C[C@H](n2ncc(COc3ccc(-n4cnnn4)nc3)n2)CCN1C(=O)OC(C)(C)C (relative stereo) [Example 59] | 33.25
2 | CC(C)(C)OC(=O)N1CCC(n2cnc(COc3ccc(S(C)(=O)=O)cc3F)n2)CC1 [Example 1, 4-[3-(2-Fluoro-4-methanesulfonyl-phenoxymethyl)-[1,2,4]triazol-1-yl]-piperidine-1-carboxylic acid tert-butyl ester] | 64.46
3 | CC(C)(C)OC(=O)N1CCC(n2ncc(COc3ccc(-n4cnnn4)cc3)n2)CC1 [Example 3, 4-[4-(4-Tetrazol-1-yl-phenoxymethyl)-[1,2,3]triazol-2-yl]-piperidine-1-carboxylic acid tert-butyl ester] | 79.02
4 | CC(C)(C)OC(=O)N1CCC(n2ncc(COc3ccc(S(C)(=O)=O)cc3F)n2)CC1 [Example 4, 4-[4-(2-Fluoro-4-methanesulfonyl-phenoxymethyl)-[1,2,3]triazol-2-yl]-piperidine-1-carboxylic acid tert-butyl ester] | 79.18
5 | CC(C)(C)OC(=O)N1CCC(n2nnc(COc3ccc(S(C)(=O)=O)cc3F)n2)CC1 [Example 5, 4-[5-(2-Fluoro-4-methanesulfonyl-phenoxymethyl)-tetrazol-2-yl]-piperidine-1-carboxylic acid tert-butyl ester] | 75.78
6 | CC(C)(C)OC(=O)N1CCC(n2ccc(COc3ccc(-n4cnnn4)cc3F)n2)CC1 [Example 6, 4-[3-(2-Fluoro-4-tetrazol-1-yl-phenoxymethyl)-pyrazol-1-yl]-piperidine-1-carboxylic acid tert-butyl ester] | 79.51
7 | CC(C)(C)OC(=O)N1CCC(n2cc(COc3ccc(-n4cnnn4)cc3F)cn2)CC1 [Example 7, 4-[4-(2-Fluoro-4-tetrazol-1-yl-phenoxymethyl)-pyrazol-1-yl]-piperidine-1-carboxylic acid tert-butyl ester] | 78.16
8 | CC(C)(C)OC(=O)N1CCC(n2cc(COc3ccc(-n4cnnn4)cc3)cn2)CC1 [Example 8, 4-[4-(4-Tetrazol-1-yl-phenoxymethyl)-pyrazol-1-yl]-piperidine-1-carboxylic acid tert-butyl ester] | 77.16
9 | CCc1cnc(N2CCC(n3cnc(COc4ccc(S(C)(=O)=O)cc4F)n3)CC2)nc1 [Example 9, 5-Ethyl-2-{4-[3-(2-fluoro-4-methanesulfonyl-phenoxymethyl)-[1,2,4]triazol-1-yl]-piperidin-1-yl}-pyrimidine] | 65.75
10 | CCc1cnc(N2CCC(n3ncc(COc4ccc(S(C)(=O)=O)cc4F)n3)CC2)nc1 [Example 10, 5-Ethyl-2-{4-[4-(2-fluoro-4-methanesulfonyl-phenoxymethyl)-[1,2,3]triazol-2-yl]-piperidin-1-yl}-pyrimidine] | 71.04
11 | CS(=O)(=O)c1ccc(OCc2cnn(C3CCN(c4ncc(Cl)cn4)CC3)n2)c(F)c1 [Example 13, 5-Chloro-2-{4-[4-(2-fluoro-4-methanesulfonyl-phenoxymethyl)-[1,2,3]triazol-2-yl]-piperidin-1-yl}-pyrimidine] | 61.30
12 | CS(=O)(=O)c1ccc(OCc2cnn(C3CCN(c4ncc(C(F)(F)F)cn4)CC3)n2)c(F)c1 [Example 14, 2-{4-[4-(2-Fluoro-4-methanesulfonyl-phenoxymethyl)-[1,2,3]triazol-2-yl]-piperidin-1-yl}-5-trifluoromethyl-pyrimidine] | 74.80
13 | Fc1cc(-n2cnnn2)ccc1OCc1cnn(C2CCN(c3ncc(C(F)(F)F)cn3)CC2)n1 [Example 15, 2-{4-[4-(2-Fluoro-4-tetrazol-1-yl-phenoxymethyl)-[1,2,3]triazol-2-yl]-piperidin-1-yl}-5-trifluoromethyl-pyrimidine] | 75.63
14 | Fc1cc(-n2cnnn2)ccc1OCc1cnn(C2CCN(c3ncc(Cl)cn3)CC2)n1 [Example 16, 5-Chloro-2-{4-[4-(2-fluoro-4-tetrazol-1-yl-phenoxymethyl)-[1,2,3]triazol-2-yl]-piperidin-1-yl}-pyrimidine] | 70.31
15 | CS(=O)(=O)c1ccc(OCc2nnn(C3CCN(c4ncc(Cl)cn4)CC3)n2)c(F)c1 [Example 17, 5-Chloro-2-{4-[5-(2-fluoro-4-methanesulfonyl-phenoxymethyl)-tetrazol-2-yl]-piperidin-1-yl}-pyrimidine] | 68.23

Next, values leading:

Row | % activity at 3 μM [%] | SMILES
16 | 88.32 | Fc1cc(-n2cnnn2)ccc1OCc1cnn([C@H]2CCN(c3ncc(Cl)cn3)C[C@@H]2F)n1 (racemic) [Example 33, 5-Chloro-2-((trans)-3-fluoro-4-(4-((2-fluoro-4-(1H-tetrazol-1-yl)phenoxy)methyl)-2H-1,2,3-triazol-2-yl)piperidin-1-yl)pyrimidine]
17 | 87.61 | Fc1cc(-n2cnnn2)ccc1OCc1cnn([C@H]2CCN(c3ncc(C(F)(F)F)cn3)C[C@@H]2F)n1 (racemic) [Example 34, 2-((trans)-3-Fluoro-4-(4-((2-fluoro-4-(1H-tetrazol-1-yl)phenoxy)methyl)-2H-1,2,3-triazol-2-yl)piperidin-1-yl)-5-(trifluoromethyl)pyrimidine]
18 | 85.32 | CCc1cnc(N2CC[C@H](n3ncc(COc4ccc(-n5cnnn5)cc4F)n3)[C@@H](F)C2)nc1 (racemic) [Example 38, 5-Ethyl-2-((trans)-3-fluoro-4-(4-((2-fluoro-4-(1H-tetrazol-1-yl)phenoxy)methyl)-2H-1,2,3-triazol-2-yl)piperidin-1-yl)pyrimidine]
19 | 78.48 | CC(C)(C)OC(=O)N1CC[C@@H](n2ncc(COc3ccc(-n4cnnn4)cc3F)n2)[C@H](F)C1 (relative stereo) [Example 49, (trans)-tert-Butyl 3-fluoro-4-(4-((2-fluoro-4-(1H-tetrazol-1-yl)phenoxy)methyl)-2H-1,2,3-triazol-2-yl)piperidine-1-carboxylate]
20 | 77.67 | CCc1cnc(N2CCC(n3cc(COc4ccc(-n5cnnn5)cc4)cn3)CC2)nc1 [Example 18, 2-(4-(4-((4-(1H-tetrazol-1-yl)phenoxy)methyl)-1H-pyrazol-1-yl)piperidin-1-yl)-5-ethylpyrimidine]
21 | 80.10 | CCc1cnc(N2CCC(n3cc(COc4ccc(-n5cnnn5)cc4F)cn3)CC2)nc1 [Example 19, 5-Ethyl-2-(4-(4-((2-fluoro-4-(1H-tetrazol-1-yl)phenoxy)methyl)-1H-pyrazol-1-yl)piperidin-1-yl)pyrimidine]
22 | 63.66 | CC(C)(C)OC(=O)N1CCC(n2cc(COc3ccc(S(C)(=O)=O)cc3)nn2)CC1 [Example 21, 4-[4-(4-Methanesulfonyl-phenoxymethyl)[1,2,3]triazol-1-yl]-piperidine-1-carboxylic acid tert-butyl ester]
